“Also recorded” adds a separate entry of the source.
Experiments:
[1] = test system: A549 cells; assay: MTT assay (cell viability); format: cell-based, human; conditions: Homo sapiens
Source text: In addition to the commonly used cell lines (A549 and H1975), we also established several cell lines including CL83, CL141, CL152, CL25, and CL97 cell lines which were isolated from the pleural effusion of NSCLC patients at the National Taiwan University Hospital. The investigation was approved by the Institutional Review Board of the National Taiwan University Hospital. Informed consent was obtained before pleural effusion was collected.

[2] = test system: A549 cells; assay: Clonogenic assay; format: cell-based, human; conditions: Homo sapiens
Method: The NSCLC cancer cell lines, A549, H1975, CL25, CL83, CL97, CL141, and CL152 were maintained in RPMI medium. Tested cells were seeded respectively in 6 well plates with 10^4 cells per well for 14 days. Each well contained 10 ml RPMI medium as cultured condition for NSCLC cells. […] Trifluoperazine and other tested drugs were added 24 hours after seeding of the cells. The medium and trifluoperazine were changed once on day 4. After the treatments, cells were washed with PBS, and the colonies were fixed with fix solution (acetic acid:methanol=1:3) and stained with 0.5% crystal violet in methanol. After removing the crystal violet carefully and rinse with tap water, the colonies were counted manually.

[3] = test system: CL141 spheroids; assay: Western blotting and immunochemical staining of cancer spheroids; format: cell-based, human; conditions: CL141 spheroids, 0, 2.5, 5 and 10 μM, 48 hours
Method: Cells were lysed in lysis buffer (50 mM Tris-HCl, pH 7.4, 5 mM MgCl2, 1% Nonidet P-40, 150 mM NaCl, 1 mM phenylmethylsulfonyl fluoride). Total protein was isolated and subjected to SDS polyacrylamide gel electrophoresis and electrotransfered onto PVDF membranes (Millipore). Primary antibodies Bax, Bak, Bcl-2, XIAP, Mcl-1, Cleaved Caspase 9, Caspase 3, […], c-Myc, CD44, cyclin D1 were obtained from Cell Signaling, Met was purchased from Santa Cruz and CD133 was from Miltenyi Biotec, and secondary antibodies for anti-mouse and anti-rabbit horseradish preoxidase (HRP)-conjugation were from Chemicon International. The protein detection was performed with enhanced chemiluminescence (ECL™) method captured by a Luminescence Imaging System (LAS-4000™, Fuji Photo Film Co., Ltd).

[4] = test system: CL141 spheroids; assay: Tumor spheroid assay; format: cell-based, human; conditions: 48 hr
[5] = test system: CL97-L2G cells; assay: Bulk lung tumor model, bioluminescent imaging; format: in vivo, NOD/SCID mice; conditions: 4 weeks; trifluoperazine 5 mg/kg/day i.p.; gefitinib 150 mg/kg/day oral gavage; combination trifluoperazine 5 mg/kg/day i.p. + gefitinib 100 mg/kg/day oral
Method: For bulk lung tumor model, CL97-[…] cells were intravenously administered into the animals via tail vein at a concentration of 1×10^6 cells/100 μl PBS. One week post tumor injection, different treatment regimens were started. […] CL97-[…]-bearing mice (both bulk lung tumor and CSC models) were imaged weekly using the IVIS 200 system (Caliper Life Sciences). Data are expressed as fold change in total photon flux/initial total photon flux and were analyzed using Living Image 1.0 software (Caliper Life Sciences). Mice were humanely sacrificed at the end of experiments and lung tumor biopsies were obtained for further analysis.

[6] = test system: CL97-L2G spheroids; assay: Prevention experiment, pretreated spheroids orthotopically injected into lung; format: in vivo, NOD/SCID mice; conditions: cells pre-treated with 5 μM overnight, versus vehicle-treated control
Method: . […] CL97-L2G-bearing mice (both bulk lung tumor and CSC models) were imaged weekly using the IVIS 200 system (Caliper Life Sciences). Data are expressed as fold change in total photon flux/initial total photon flux and were analyzed using Living Image 1.0 software (Caliper Life Sciences). Mice were humanely sacrificed at the end of experiments and lung tumor biopsies were obtained for further analysis.

## CN1CCN(CCCN2c3ccccc3Sc3ccc(C(F)(F)F)cc32)CC1 [Trifluoperazine]
[1]; A549 cell line, read-out: IC50 for trifluoperazine
  IC50: > 10 µM
[1]; A549 cells, read-out: MTT assay (IC50)
  IC50: > 10 µM
[2]
  IC50: 1.25 to 2.5 µM
[3]
  CD44 and CD133 expression: dose-dependently down-regulated
[4]
  size and number of spheroids: dose-dependently decreased
[5]
  tumor burden (fold change in bioluminescence intensity): significantly reduced tumor burden; also recorded: significantly lower tumor burden
[6]
  in-situ tumor growth (fold change in BLI): significantly delayed and suppressed; also recorded: delayed and significantly reduced in-situ tumor growth

— US20140294994A1, “PHARMACEUTICAL COMPOSITION FOR ELIMINATION OF CANCER STEM CELLS” (priority 2011, published 2014)
